Experiments:
[1] = tested on: THP1 cells; assay: Proinflammatory cytokine secretion inhibition, human macrophage cells; assay type: cell-based; details: MHP6 10-100 μg/ml or MHP1 100 μg/ml, LPS 2 ng/ml, 24 hours, FIG. 14
Experimental: THP1 cells (human-derived macrophage cell line) were cultured in a DMEM medium (+4% FBS) containing MHP6 (human-derived; final concentration: 10, 30, 50, or 100 μg/ml) or MHP1 (mouse-derived; final concentration: 100 μg/ml), and LPS (final concentration: 2 ng/ml) for 24 hours by a standard method. After culture, the concentration of IL-6 in the medium was measured by the ELISA method.

[2] = tested on: MG6 cells; assay: Proinflammatory cytokine secretion inhibition, LPS-stimulated microglial cells (ELISA); assay type: cell-based, mouse; details: for proinflammatory cytokine secretion-inhibiting activity on the MG6 cells: same test as Example 2
Experimental: MG6 cells (mouse-derived microglial cell line) were cultured in a DMEM medium (+4% FBS) containing MHP1 or MHP2 (final concentration: 50 or 100 μg/ml), and LPS (final concentration: 2 ng/ml) for 24 hours by a standard method. After culture, the concentrations of IL-6 and TNFα in the medium were measured by the ELISA method. In the Examples of the present application, the ELISA method was performed using a kit (Quantikine ELISA Mouse TNF-α or Quantikine ELISA Mouse IL-6, produced by R&D Systems). The results are shown in FIG. 1 (IL-6) and FIG. 2 (TNFα).
The proinflammatory cytokine secretion-inhibiting effect was examined in the same as in Example 2, except that the final concentration of MHP1 was set to 100 μg/ml, and that RANKL full-length protein was used at a final concentration of 10 ng/ml or 100 ng/ml as the comparison target.

[3] = tested on: LPS-administered mice (Balb/c); assay: Septicemia model, LPS intraperitoneal, survival; assay type: in vivo, mouse; details: LPS 10 mg/kg + MHP2 5 mg/kg or 10 mg/kg i.p.; LPS only: 2 of 3 died; FIG. 17
Experimental: To wild-type mice (Balb/c, 5-week-old female mice), LPS (10 mg/kg) was intraperitoneally administered, or LPS (10 mg/kg) and MHP-2 (5 mg/kg or 10 mg/kg) were intraperitoneally administered. After administration, the survival rate of the mice was measured.

[4] = tested on: osteoclast precursor cells; assay: Osteoclast differentiation, Osteoclast Culture Kit (TRAP and nuclear staining); assay type: cell-based; details: with M-CSF 50 ng/ml; MHP1 30, 50 or 100 μg/ml or RANKL protein 50 ng/ml; FIG. 13
Experimental: Osteoclast Culture Kit V-2 (OSC33, produced by Cosmo Bio Co., Ltd.) was used. According to the manual of the kit, culture of osteoclast precursor cells was started in the presence of M-CSF (final concentration: 50 ng/ml) in the A and B groups, and in the presence of M-CSF (final concentration: 50 ng/ml) and MHP1 (final concentration: 30, 50, or 100 μg/ml) in the C and D groups. Thereafter, 24 hours to 7 days after the start of culture, the A group was cultured in the presence of M-CSF (final concentration: 50 ng/ml), the B group was cultured in the presence of M-CSF (final concentration: 50 ng/ml) and RANKL protein (final concentration: 50 ng/ml), the C group was cultured in the presence of M-CSF (final concentration: 50 ng/ml) and MHP1 (final concentration: 30, 50, or 100 μg/ml), and the D group was cultured in the presence of M-CSF (final concentration: 50 ng/ml), RANKL protein (final concentration: 50 ng/ml), and MHP1 (final concentration: 30, 50, or 100 μg/ml). After culture, the cells were subjected to TRAP staining and nuclear staining according to a standard method.

Substance | proinflammatory cytokine secretion-inhibiting activity on the MG6 cells [2] | further results
LMVYVTKTSIKIPSSHTLMKGGSTKYWSGN (listed as Homo sapiens) [MHP6] |  | proinflammatory cytokine (IL-6) secretion-inhibiting activity on human-derived macrophage cells [1]: exhibited proinflammatory cytokine secretion-inhibiting activity
LMVYVVKTSIK (listed as Mus musculus) [MHP17] | showed proinflammatory cytokine secretion-inhibiting activity | 
HETSGSVPADYLQLMVYVVKTSIKIPSS (listed as Mus musculus) [MHP3] | did not show proinflammatory cytokine secretion-inhibiting activity | 
LMVYVVKTSIKIPSS (listed as Mus musculus) [MHP4] | showed proinflammatory cytokine secretion-inhibiting activity | 
LMVYVVKTSIKIPSSHNLMKGGS (listed as Mus musculus) [MHP12] | showed proinflammatory cytokine secretion-inhibiting activity | 
LMVYVVKTSIKIPSSHNLMKGG (listed as Mus musculus) [MHP5] | showed proinflammatory cytokine secretion-inhibiting activity | 
DYLQLMVYVVKTSIKIPSSHNLMKGGSTKN (listed as Mus musculus) [MHP2] |  | increase in the amount of IL-6 secretion by LPS ([2]; MG6 cells, peptide 50 or 100 μg/ml, LPS 2 ng/ml, 24 hours, FIG. 1): suppressed; increase in the amount of TNFα secretion by LPS ([2]; MG6 cells, peptide 50 or 100 μg/ml, LPS 2 ng/ml, 24 hours, FIG. 2): suppressed; mice that died [3]: no mouse
LMVYVVKTSIKIPSSHNLMKGGSTKN (listed as Mus musculus) [MHP13] | showed proinflammatory cytokine secretion-inhibiting activity | 
RANKL: RANKL protein (Recombinant Murin sRANKL Ligand (Cat No. 315-11): produced by Peprotech) (LMVYVVKTSIKIPSSHNLMKGGSTKNWSGN) [reference compound] |  | differentiation of osteoclasts by the substance itself [4]: promoted

Source: patent US10517926B2, “Oligopeptide having proinflammatory cytokine secretion-inhibiting activity” (Osaka University, priority 2015, dated 2019)
